Holding throughout (assay): inhibition of tumour cell growth, NCI panel, 48 h
The test system of assay [1] is COLO 205.
The test system of assay [2] is HT-29.
Assay [3] concerns A498.
Assay [4] concerns UACC-257.
For assay [5], the system named is M14.
In assay [6] the test system is SK-MEL-5.
Assay [7] deals with BT-549.
Assay [8] deals with T47D.
Assay [9] deals with SF-268.
In assay [10] the test system is OVCAR-5.
For assay [11], the system named is DU-145.
The test system of assay [12] is K562.
In assay [13] the test system is Hs-578T.
Assay [14] has as its system NCI-H460.
Assay [15] relates to RPMI-8226.
Assay [16] relates to NCI/ADR-RES.
In assay [17] the test system is SF-539.
The test system of assay [18] is SNB-75.
Assay [19] relates to MDA-N.

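Cells were grown in 96-well plates and exposed to each compound for 48 hours at five concentrations; endpoints were interpolated linearly between bracketing concentrations, or set to the highest concentration if not reached. GI50: concentration for 50% inhibition of growth.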 The source made the active and inactive calls. Cut-off read from the data, not from the text of the source: active = GI50 up to about 1.1 µM and inactive = higher. Some results are limits rather than exact numbers.

On to `COc1cc2cnc(-c3ccccc3)cc2cc1OC`, for which the GI50 is 20.9 µM (inactive) in assay [1]; 24.9 µM (inactive) in assay [2]; 0.252 µM (active) in assay [3]; 22.8 µM (inactive) in assay [4]; 30.7 µM (inactive) in [5]; 11.8 µM (inactive) in assay [6]. Further, the GI50 in assay [7] was 23.2 µM (inactive); in assay [8], 26.7 µM (inactive); in [9] it was 35.7 µM (inactive); in [10], 33.2 µM (inactive); in assay [11], 37.3 µM (inactive); in assay [12], 30.1 µM (inactive). Further, the GI50 in assay [13] is 12.8 µM (inactive); in assay [14] it was 32.2 µM (inactive); in assay [15], 15.9 µM (inactive); in assay [16], 26 µM (inactive); in assay [17], 31.1 µM (inactive); in [18], 41.1 µM (inactive).
Take `CCCCCCCCCCCCC/C=C/[C@@H](O)[C@H](COC1OC(CO)C(OC2OC(CO)C(O)C(OC3(C(=O)O)CC(O)C(NC(C)=O)C(C(O)C(O)CO)O3)C2O)C(O)C1O)N=[N+]=[N-]` (stereo partly drawn): the GI50 in [1] was 17.8 µM (inactive); in assay [2], 22 µM (inactive); in [3], 47.2 µM (inactive); in assay [4], 40 µM (inactive); in assay [5], 18.7 µM (inactive); in assay [6], 17.4 µM (inactive). Besides, the GI50 in assay [8] was 48.5 µM (inactive); in [9], 22.2 µM (inactive); in assay [19], > 100 µM (inactive); in assay [10] it was 56 µM (inactive); in assay [11], > 100 µM (inactive); in assay [12], 27.4 µM (inactive). Moreover, the GI50 in [13] was 55.7 µM (inactive); in assay [14], 36.9 µM (inactive); in [15], 95.3 µM (inactive); in [16], 21.8 µM (inactive); in assay [17] it was 17.5 µM (inactive); in [18], 15.9 µM (inactive).
Take `COc1ccc2c(=O)c(-c3cc4c(cc3OC)OCO4)coc2c1`: the GI50 in assay [1], in [2], in [3], in assay [4], in [5] and in assay [6] was > 100 µM (inactive) each time. Also, the GI50 in assay [7] was > 100 µM (inactive); in [8] it was > 100 µM (inactive); in assay [9] it was 72.8 µM (inactive); in assay [10], > 100 µM (inactive); in assay [11], > 100 µM (inactive); in assay [13], > 100 µM (inactive). Besides, the GI50 in assay [14] was > 100 µM (inactive); in [15], > 100 µM (inactive); in assay [16], > 100 µM (inactive); in assay [17] it was > 100 µM (inactive); in assay [18], 93.3 µM (inactive).
Turning to `Cc1nn(C(=O)Cc2ccccc2)c2c1C(c1ccccc1O)SC(=N)N2` (stereo not drawn), the GI50 in assay [1], in assay [2], in [3], in assay [4], in assay [5] and in [6] was > 100 µM (inactive) each time. Further, the GI50 in assay [7], in assay [8], in assay [9], in assay [11], in assay [12] and in assay [13] was > 100 µM (inactive) in each case. Further, the GI50 in [14], in [15], in [17] and in assay [18] was > 100 µM (inactive) in each case.
As to `O=C(O)C1SCCS1`, the GI50 in [1], in assay [2], in [3], in assay [4], in assay [5] and in [6] was > 100 µM (inactive) in each case. The GI50 in assay [7], in assay [8], in [9], in assay [19], in [10] and in assay [11] was > 100 µM (inactive) each time. The GI50 in assay [12], in assay [14], in assay [15], in assay [16] and in assay [18] was > 100 µM (inactive) throughout.
Consider `Cn1c2ccccc2c2cc(-c3ccccc3)c3c(c21)C(=O)c1ccccc1C3=O`, for which the GI50 was 31.5 µM (inactive) in [1]; 31.9 µM (inactive) in assay [2]; > 100 µM (inactive) in assay [3]; 18 µM (inactive) in [4]; 14.3 µM (inactive) in [5]; 19.1 µM (inactive) in [9]. Further, the GI50 in assay [12] was 21.4 µM (inactive); in [15], 4.67 µM (inactive); in assay [17], 22.9 µM (inactive); in [18] it was 34.4 µM (inactive).
With `[N-]=[N+]=Nc1ccc2c(c1)Sc1ccccc1N2CCCCN1CCN(Cc2ccc(C(=O)c3ccc(CSCC(N)C(=O)O)cc3)cc2)CC1` (stereo not drawn), the GI50 in [1] is 13.6 µM (inactive); in assay [2] it was 14 µM (inactive); in assay [3], 18.5 µM (inactive); in assay [4] it was 22.8 µM (inactive); in assay [6], 13.8 µM (inactive); in assay [7], 18 µM (inactive). In addition, the GI50 was 27.5 µM (inactive) in assay [9]; 12.8 µM (inactive) in assay [19]; 52.4 µM (inactive) in assay [10]; 21.3 µM (inactive) in [11]; 12.5 µM (inactive) in assay [12]; 34.8 µM (inactive) in assay [14]. Also, the GI50 in [15] was 13.2 µM (inactive).
As for `O=c1c2ncn(C3CCCO3)c2n(-c2ccccc2)c(=S)n1-c1ccccc1` (stereo not drawn), the GI50 in [1], in assay [2], in assay [3], in [4], in [5] and in assay [6] was > 100 µM (inactive) in each case. In addition, the GI50 in assay [7], in assay [8], in [9], in [10], in assay [11] and in [12] was > 100 µM (inactive) in each case. Further, the GI50 in assay [14] is > 100 µM (inactive); in [15], > 100 µM (inactive); in assay [16] it was > 100 µM (inactive); in assay [17] it was > 100 µM (inactive); in [18] it was 97.7 µM (inactive).
Regarding `CCCCCCCCCCCCCCCCCC(=O)OCC(COC1OC(COP(=O)(O)O)C(O)C(O)C1O)OC(=O)CCCCCCCCCCCCCCCCC` (stereo not drawn), the GI50 in [1] is 9.59 µM (inactive); in [2], 5.32 µM (inactive); in assay [3], 6.03 µM (inactive); in assay [4], 8.61 µM (inactive); in assay [5] it was 9.14 µM (inactive); in assay [6], 9.1 µM (inactive). Moreover, the GI50 in [8] was 11.9 µM (inactive); in [9] it was 8.97 µM (inactive); in [19], 10.7 µM (inactive); in [10] it was 5.28 µM (inactive); in assay [11] it was 9.62 µM (inactive); in assay [12], 9.89 µM (inactive). For the same compound, the GI50 is 6.14 µM (inactive) in assay [13]; 11.7 µM (inactive) in [14]; 13.6 µM (inactive) in assay [15]; 9.33 µM (inactive) in assay [16]; 9.44 µM (inactive) in assay [17]; 4.63 µM (inactive) in assay [18].
Regarding `CCCCN(CCCC)CC(C(=O)Nc1ccc([N+](=O)[O-])cc1[N+](=O)[O-])/C(C)=N\NC(=O)c1ccncc1` (stereo not drawn), the GI50 in assay [1], in assay [3], in assay [4], in [5], in assay [6] and in assay [9] was > 100 µM (inactive) each time. Also, the GI50 in assay [10] is > 100 µM (inactive); in [12], > 100 µM (inactive); in assay [14] it was > 100 µM (inactive); in [15] it was > 100 µM (inactive); in assay [17] it was > 100 µM (inactive); in assay [18] it was 76.6 µM (inactive).
As for `COC(=O)C1=Cc2c(cc(OC)c(OC)c2OC)[C@H](c2ccc(OC)c(OC)c2OC)C1C(=O)OC` (stereo partly drawn), the GI50 in assay [1] was 55.7 µM (inactive); in assay [2], 36.1 µM (inactive); in assay [3], > 100 µM (inactive); in [4], > 100 µM (inactive); in [5] it was > 100 µM (inactive); in [6] it was > 100 µM (inactive). The GI50 is > 100 µM (inactive) in assay [9]; > 100 µM (inactive) in assay [10]; > 100 µM (inactive) in assay [12]; > 100 µM (inactive) in assay [14]; 89.5 µM (inactive) in assay [15]; > 100 µM (inactive) in assay [17]. Further, the GI50 in assay [18] is > 100 µM (inactive).
On to `C[C@@]12C(=O)OC(=O)[C@]1(C)[C@H]1CC[C@@H]2O1` [CANTHARIDIN], for which the GI50 in assay [1] was 0.427 µM (active); in assay [2], 1.66 µM (inactive); in assay [3] it was 1.12 µM (inactive); in [4] it was 2.65 µM (inactive); in [5] it was 1.7 µM (inactive); in [6] it was 0.973 µM (active). The GI50 is 1.7 µM (inactive) in assay [7]; 1.68 µM (inactive) in [8]; 1.77 µM (inactive) in assay [9]; 2.91 µM (inactive) in assay [19]; 2.45 µM (inactive) in assay [10]; 1.02 µM (active) in assay [11]. Further, the GI50 was 2.3 µM (inactive) in assay [12]; 2.72 µM (inactive) in [14]; 2.08 µM (inactive) in [15]; 6.5 µM (inactive) in [16]; 2.04 µM (inactive) in assay [17]; 0.472 µM (active) in [18].
In the case of `CN(C)c1ccc(C(=C2C=CC(=[N+](C)C)C=C2)c2ccc(N(C)C)cc2)cc1` [GENTIAN VIOLET], the GI50 in assay [1] was 0.189 µM (active); in [4], 0.176 µM (active); in assay [5] it was 0.163 µM (active); in assay [6] it was 0.0809 µM (active); in assay [9] it was 0.133 µM (active); in [10] it was 0.202 µM (active). In addition, the GI50 in assay [12] is 0.0327 µM (active); in assay [14] it was 0.0574 µM (active); in assay [15], 0.0237 µM (active); in assay [17], 0.258 µM (active); in [18], 0.182 µM (active).

Values taken from ChEMBL document CHEMBL1201862, “PubChem BioAssay data set” (2004).
